Measured values as given in patent US10670605B2, “Cysteine reactive probes and uses thereof” (The Scripps Research Institute, priority 2015, dated 2020).

Tests used:
Experiment in all cases: Competitive isoTOP-ABPP in situ (fragment-treated cells)
Type in all cases: cell-based
Conditions in all cases: 200 μM, insitu
[1] = target: T1, cysteines in MDA-MB-231 and Ramos cells (Homo sapiens, UniProt P10599)
T1 sequence (P10599 1-105): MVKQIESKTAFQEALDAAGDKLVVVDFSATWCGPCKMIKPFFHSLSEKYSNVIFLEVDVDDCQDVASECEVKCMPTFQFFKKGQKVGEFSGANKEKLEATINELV

[2] = target: cysteines in MDA-MB-231 and Ramos cells (Homo sapiens, UniProt P12268)
[3] = target: T2, cysteines in MDA-MB-231 and Ramos cells (Homo sapiens, UniProt P35611)
T2 sequence (P35611 1-737): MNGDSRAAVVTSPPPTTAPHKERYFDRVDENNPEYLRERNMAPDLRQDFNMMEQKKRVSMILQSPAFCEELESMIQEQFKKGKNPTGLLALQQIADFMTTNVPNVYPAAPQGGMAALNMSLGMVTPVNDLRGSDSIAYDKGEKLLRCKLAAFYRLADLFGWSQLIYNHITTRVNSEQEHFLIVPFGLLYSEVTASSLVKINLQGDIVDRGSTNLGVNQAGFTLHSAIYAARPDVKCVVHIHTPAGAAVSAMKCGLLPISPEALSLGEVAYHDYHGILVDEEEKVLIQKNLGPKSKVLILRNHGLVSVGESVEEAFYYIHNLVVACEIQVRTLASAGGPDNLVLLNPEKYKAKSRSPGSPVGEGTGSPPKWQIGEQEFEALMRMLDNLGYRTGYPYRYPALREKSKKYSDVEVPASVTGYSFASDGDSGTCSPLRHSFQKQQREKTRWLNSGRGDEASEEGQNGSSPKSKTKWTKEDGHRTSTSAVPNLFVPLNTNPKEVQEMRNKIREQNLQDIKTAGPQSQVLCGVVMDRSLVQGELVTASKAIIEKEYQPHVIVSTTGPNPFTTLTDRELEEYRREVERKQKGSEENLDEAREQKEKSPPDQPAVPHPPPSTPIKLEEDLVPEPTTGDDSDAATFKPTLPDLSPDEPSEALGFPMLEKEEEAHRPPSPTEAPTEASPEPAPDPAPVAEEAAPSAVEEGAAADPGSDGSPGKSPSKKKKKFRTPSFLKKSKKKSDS

[4] = target: T3, cysteines in MDA-MB-231 and Ramos cells (Homo sapiens, UniProt Q13428)
T3 sequence (Q13428 1-1488): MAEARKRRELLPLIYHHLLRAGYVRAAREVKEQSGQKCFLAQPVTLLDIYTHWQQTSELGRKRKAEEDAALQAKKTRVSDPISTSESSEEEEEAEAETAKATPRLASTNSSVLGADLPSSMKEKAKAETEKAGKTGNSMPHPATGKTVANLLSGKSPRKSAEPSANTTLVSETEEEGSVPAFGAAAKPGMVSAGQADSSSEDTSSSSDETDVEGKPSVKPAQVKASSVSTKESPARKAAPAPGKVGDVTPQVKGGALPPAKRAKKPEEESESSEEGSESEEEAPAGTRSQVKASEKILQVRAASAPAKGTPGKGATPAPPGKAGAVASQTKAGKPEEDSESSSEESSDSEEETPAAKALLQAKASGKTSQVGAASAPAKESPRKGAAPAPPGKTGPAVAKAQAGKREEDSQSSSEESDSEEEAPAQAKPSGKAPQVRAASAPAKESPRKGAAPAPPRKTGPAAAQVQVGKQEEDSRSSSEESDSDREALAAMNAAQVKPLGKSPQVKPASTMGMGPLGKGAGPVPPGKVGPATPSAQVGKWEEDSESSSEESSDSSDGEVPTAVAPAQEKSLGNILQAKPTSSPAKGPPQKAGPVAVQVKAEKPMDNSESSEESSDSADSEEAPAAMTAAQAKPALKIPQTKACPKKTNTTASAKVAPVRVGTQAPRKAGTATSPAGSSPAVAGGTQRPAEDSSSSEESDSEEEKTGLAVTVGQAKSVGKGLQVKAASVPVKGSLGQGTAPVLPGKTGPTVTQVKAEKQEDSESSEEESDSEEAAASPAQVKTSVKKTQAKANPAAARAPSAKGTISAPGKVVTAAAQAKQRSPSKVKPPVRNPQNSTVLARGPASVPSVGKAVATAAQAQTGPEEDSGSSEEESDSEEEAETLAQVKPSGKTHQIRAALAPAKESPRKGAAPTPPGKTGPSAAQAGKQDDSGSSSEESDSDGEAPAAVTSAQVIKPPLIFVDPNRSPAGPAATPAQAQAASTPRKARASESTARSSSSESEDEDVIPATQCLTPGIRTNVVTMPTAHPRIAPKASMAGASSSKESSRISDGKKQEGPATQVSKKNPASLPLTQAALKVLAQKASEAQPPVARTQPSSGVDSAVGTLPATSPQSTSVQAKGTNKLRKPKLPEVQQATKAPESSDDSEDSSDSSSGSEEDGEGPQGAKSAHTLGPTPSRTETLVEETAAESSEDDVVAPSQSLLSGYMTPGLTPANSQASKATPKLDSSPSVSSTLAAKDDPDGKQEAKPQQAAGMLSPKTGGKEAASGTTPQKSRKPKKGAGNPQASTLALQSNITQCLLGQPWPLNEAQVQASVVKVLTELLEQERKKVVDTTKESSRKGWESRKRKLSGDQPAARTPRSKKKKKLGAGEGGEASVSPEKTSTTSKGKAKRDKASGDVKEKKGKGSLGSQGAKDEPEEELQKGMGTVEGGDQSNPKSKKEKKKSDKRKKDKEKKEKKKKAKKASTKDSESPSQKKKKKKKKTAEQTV

[5] = target: cysteines in MDA-MB-231 and Ramos cells (Homo sapiens, UniProt Q9NUY8)
cysteines in MDA-MB-231 and Ramos cells (Homo sapiens, UniProt Q9NUY8), sequence (Q9NUY8 whole entry): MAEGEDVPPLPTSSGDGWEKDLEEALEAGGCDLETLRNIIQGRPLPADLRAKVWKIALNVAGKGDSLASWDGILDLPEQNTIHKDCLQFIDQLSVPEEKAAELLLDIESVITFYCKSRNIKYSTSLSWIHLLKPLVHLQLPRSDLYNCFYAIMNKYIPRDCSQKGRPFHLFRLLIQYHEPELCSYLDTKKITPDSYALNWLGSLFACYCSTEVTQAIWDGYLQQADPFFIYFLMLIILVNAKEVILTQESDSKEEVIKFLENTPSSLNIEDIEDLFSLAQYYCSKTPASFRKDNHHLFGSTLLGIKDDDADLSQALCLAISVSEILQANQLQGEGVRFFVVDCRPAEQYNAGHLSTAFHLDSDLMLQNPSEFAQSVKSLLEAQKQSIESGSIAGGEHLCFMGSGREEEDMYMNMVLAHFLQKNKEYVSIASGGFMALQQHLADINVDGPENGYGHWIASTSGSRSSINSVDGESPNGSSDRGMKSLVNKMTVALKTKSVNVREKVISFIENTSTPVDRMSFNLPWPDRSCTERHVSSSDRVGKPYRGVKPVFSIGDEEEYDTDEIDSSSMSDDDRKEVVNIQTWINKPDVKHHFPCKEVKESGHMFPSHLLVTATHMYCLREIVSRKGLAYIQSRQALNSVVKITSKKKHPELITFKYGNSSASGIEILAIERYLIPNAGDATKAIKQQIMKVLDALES

[6] = target: cysteines in MDA-MB-231 and Ramos cells (Homo sapiens, UniProt Q8TAQ2)
cysteines in MDA-MB-231 and Ramos cells (Homo sapiens, UniProt Q8TAQ2), sequence (Q8TAQ2 whole entry): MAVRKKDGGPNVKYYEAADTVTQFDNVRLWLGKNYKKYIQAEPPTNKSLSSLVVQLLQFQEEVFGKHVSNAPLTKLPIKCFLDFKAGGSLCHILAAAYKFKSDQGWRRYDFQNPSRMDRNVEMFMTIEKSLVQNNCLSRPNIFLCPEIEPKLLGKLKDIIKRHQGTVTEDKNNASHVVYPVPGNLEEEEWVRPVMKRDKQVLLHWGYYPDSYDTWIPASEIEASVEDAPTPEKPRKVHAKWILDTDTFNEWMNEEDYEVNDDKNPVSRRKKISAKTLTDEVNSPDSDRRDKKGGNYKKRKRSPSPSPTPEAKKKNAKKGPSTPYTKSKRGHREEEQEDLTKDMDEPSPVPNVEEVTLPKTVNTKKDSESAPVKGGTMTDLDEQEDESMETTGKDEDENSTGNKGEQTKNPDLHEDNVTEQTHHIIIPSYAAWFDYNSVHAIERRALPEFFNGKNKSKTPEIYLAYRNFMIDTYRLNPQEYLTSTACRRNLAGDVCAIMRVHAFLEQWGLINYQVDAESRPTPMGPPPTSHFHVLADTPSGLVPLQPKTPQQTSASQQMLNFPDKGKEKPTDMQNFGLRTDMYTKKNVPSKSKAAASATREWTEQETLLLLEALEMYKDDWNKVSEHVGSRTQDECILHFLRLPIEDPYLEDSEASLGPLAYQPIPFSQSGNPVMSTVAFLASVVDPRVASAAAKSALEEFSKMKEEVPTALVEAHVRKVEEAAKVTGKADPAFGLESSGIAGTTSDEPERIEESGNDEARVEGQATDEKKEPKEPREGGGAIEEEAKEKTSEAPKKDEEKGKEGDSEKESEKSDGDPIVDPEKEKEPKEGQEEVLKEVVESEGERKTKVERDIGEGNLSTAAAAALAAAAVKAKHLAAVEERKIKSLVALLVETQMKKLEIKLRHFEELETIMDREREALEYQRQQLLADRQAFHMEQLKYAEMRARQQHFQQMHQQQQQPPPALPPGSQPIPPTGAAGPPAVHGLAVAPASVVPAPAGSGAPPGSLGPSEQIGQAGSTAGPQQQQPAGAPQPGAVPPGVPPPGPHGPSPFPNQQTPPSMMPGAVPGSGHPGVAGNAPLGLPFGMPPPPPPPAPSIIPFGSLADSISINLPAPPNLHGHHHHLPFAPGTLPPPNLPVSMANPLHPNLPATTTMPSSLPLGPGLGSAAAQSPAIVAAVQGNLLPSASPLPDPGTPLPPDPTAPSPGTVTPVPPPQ

Row | isoTOP-ABPP ratio P10599_C32 [1]; 231 | isoTOP-ABPP ratio P12268_C140 [2]; 231 | isoTOP-ABPP ratio P35611_C68 [3]; 231 | isoTOP-ABPP ratio Q13428_C38 [4]; 231 | isoTOP-ABPP ratio Q13428_C1298 [4]; 231 | isoTOP-ABPP ratio Q9NUY8_C283 [5]; 231 | isoTOP-ABPP ratio P10599_C32 ([1]; ramos) | isoTOP-ABPP ratio P12268_C331 ([2]; ramos) | isoTOP-ABPP ratio P35611_C68 ([3]; ramos) | isoTOP-ABPP ratio Q8TAQ2_C145 [6]; 231 | isoTOP-ABPP ratio Q9NUY8_C283 ([5]; ramos) | isoTOP-ABPP ratio P12268_C331 [2]; 231 | isoTOP-ABPP ratio P12268_C140 ([2]; ramos) | isoTOP-ABPP ratio Q13428_C38 ([4]; ramos) | isoTOP-ABPP ratio Q8TAQ2_C145 ([6]; ramos) | isoTOP-ABPP ratio Q13428_C1298 ([4]; ramos) | Compound
1 | 20.0 | 1.2 | 3.6 | 4.7 | 20.0 | 2.9 |  |  |  |  |  |  |  |  |  |  | O=C(CCl)NC(=O)NC12CC3CC(CC(C3)C1)C2 [compound 12]
2 | 7.9 | 0.7 | 1.1 | 1.6 |  | 1.1 | 4.1 | 1.4 | 1.0 | 1.1 | 1.1 |  |  |  |  |  | O=C(CCl)NCCc1c[nH]c2ccccc12 [compound 13]
3 | 3.9 | 0.6 | 0.8 | 1.5 |  | 0.8 |  |  |  | 1.6 |  | 0.8 |  |  |  |  | O=C(CCl)NC12CC3CC(CC(C3)C1)C2 [compound 21]
4 | 2.5 | 0.5 | 0.9 | 1.3 | 1.0 | 0.6 |  |  |  | 2.1 |  | 0.7 |  |  |  |  | CC(C)CCOCCNC(=O)CCl [compound 27]
5 | 20.0 | 0.6 | 1.7 | 1.0 | 0.9 | 0.7 |  |  |  | 0.9 |  | 0.8 |  |  |  |  | COc1ccccc1OCCNC(=O)CCl [compound 28]
6 |  |  |  |  |  |  | 1.9 | 1.3 |  |  | 1.3 |  | 1.6 | 1.5 | 2.7 |  | O=C(CCl)N1CCN(CC(=O)N2CCOCC2)CC1 [compound 29]
7 | 1.2 | 0.6 |  |  |  | 0.6 | 1.7 | 1.1 |  | 0.8 |  | 1.0 | 1.0 |  | 1.1 | 2.2 | C=CC(=O)N(Cc1cccnc1)c1cc(C(F)(F)F)cc(C(F)(F)F)c1 [compound 31]
